For the test, the target named is T1, p300 (Homo sapiens, UniProt Q09472).
T1 construct: host or cells: A549 P300 HiBit cells
As to the kind of experiment: P300 degradation, HiBit technology in A549 P300 HiBit cells (2 h). It is filed as cell-based. The conditions noted are these: 2 hrs post treatment; for Dmax: A549, A549 P300 HiBit cells; for DC50: A549 P300 HiBit cells. The method, then:
p300 and CBP degradation potency and Dmax were determined using in cell western (ICW) assay technology in H1299 cells or HiBit technology in A549 HiBit cells.
A549 P300 HiBit and A549 CBP HiBit cells were plated in separate 384-well, TC treated, white-opaque, flat-bottomed microplate. Cells were plated at a cell density of 0.2×10^4 cells per well in assay media comprised of F-12K, 10% heat inactivated FBS, and 1% penicillin/streptomycin. Assay microplates containing HiBit cells were placed in a 37° C., 5% CO2, tissue culture incubator and left to equilibrate overnight. The next day cells were treated with serial dilutions of test compound made up of 10 mM stock solutions in DMSO. 384-Well plates containing treated cells were then placed back into a 37° C., 5% CO2, tissue culture incubator. Assay microplates containing A549 P300 HiBit cells were incubated for 2 hrs post treatment before P300 destruction was assessed, while microplates containing A549 CBP HiBit cells were incubated for 24 hrs post treatment before CBP destruction was determined. On the day of each assay time point, microplates were removed from the tissue culture incubator and prepared HiBit Lytic detection buffer (Promega, cat #N3O40) was added to each plate. Plates were covered with aluminum foil and incubated for ten minutes at room temperature on an orbital shaker. After incubation, luminescent signal of each plate was measured using the Envision instrument (Perkin Elmer).

The values below come from US20250114345A1, “COMPOUNDS AND COMPOSITIONS AS CBP/P300 DEGRADERS AND USES THEREOF” (Oncopia Therapeutics, Inc. d/b/a/ SK Life Science Labs, priority 2023, published 2025).

T1 sequence (Q09472 whole entry): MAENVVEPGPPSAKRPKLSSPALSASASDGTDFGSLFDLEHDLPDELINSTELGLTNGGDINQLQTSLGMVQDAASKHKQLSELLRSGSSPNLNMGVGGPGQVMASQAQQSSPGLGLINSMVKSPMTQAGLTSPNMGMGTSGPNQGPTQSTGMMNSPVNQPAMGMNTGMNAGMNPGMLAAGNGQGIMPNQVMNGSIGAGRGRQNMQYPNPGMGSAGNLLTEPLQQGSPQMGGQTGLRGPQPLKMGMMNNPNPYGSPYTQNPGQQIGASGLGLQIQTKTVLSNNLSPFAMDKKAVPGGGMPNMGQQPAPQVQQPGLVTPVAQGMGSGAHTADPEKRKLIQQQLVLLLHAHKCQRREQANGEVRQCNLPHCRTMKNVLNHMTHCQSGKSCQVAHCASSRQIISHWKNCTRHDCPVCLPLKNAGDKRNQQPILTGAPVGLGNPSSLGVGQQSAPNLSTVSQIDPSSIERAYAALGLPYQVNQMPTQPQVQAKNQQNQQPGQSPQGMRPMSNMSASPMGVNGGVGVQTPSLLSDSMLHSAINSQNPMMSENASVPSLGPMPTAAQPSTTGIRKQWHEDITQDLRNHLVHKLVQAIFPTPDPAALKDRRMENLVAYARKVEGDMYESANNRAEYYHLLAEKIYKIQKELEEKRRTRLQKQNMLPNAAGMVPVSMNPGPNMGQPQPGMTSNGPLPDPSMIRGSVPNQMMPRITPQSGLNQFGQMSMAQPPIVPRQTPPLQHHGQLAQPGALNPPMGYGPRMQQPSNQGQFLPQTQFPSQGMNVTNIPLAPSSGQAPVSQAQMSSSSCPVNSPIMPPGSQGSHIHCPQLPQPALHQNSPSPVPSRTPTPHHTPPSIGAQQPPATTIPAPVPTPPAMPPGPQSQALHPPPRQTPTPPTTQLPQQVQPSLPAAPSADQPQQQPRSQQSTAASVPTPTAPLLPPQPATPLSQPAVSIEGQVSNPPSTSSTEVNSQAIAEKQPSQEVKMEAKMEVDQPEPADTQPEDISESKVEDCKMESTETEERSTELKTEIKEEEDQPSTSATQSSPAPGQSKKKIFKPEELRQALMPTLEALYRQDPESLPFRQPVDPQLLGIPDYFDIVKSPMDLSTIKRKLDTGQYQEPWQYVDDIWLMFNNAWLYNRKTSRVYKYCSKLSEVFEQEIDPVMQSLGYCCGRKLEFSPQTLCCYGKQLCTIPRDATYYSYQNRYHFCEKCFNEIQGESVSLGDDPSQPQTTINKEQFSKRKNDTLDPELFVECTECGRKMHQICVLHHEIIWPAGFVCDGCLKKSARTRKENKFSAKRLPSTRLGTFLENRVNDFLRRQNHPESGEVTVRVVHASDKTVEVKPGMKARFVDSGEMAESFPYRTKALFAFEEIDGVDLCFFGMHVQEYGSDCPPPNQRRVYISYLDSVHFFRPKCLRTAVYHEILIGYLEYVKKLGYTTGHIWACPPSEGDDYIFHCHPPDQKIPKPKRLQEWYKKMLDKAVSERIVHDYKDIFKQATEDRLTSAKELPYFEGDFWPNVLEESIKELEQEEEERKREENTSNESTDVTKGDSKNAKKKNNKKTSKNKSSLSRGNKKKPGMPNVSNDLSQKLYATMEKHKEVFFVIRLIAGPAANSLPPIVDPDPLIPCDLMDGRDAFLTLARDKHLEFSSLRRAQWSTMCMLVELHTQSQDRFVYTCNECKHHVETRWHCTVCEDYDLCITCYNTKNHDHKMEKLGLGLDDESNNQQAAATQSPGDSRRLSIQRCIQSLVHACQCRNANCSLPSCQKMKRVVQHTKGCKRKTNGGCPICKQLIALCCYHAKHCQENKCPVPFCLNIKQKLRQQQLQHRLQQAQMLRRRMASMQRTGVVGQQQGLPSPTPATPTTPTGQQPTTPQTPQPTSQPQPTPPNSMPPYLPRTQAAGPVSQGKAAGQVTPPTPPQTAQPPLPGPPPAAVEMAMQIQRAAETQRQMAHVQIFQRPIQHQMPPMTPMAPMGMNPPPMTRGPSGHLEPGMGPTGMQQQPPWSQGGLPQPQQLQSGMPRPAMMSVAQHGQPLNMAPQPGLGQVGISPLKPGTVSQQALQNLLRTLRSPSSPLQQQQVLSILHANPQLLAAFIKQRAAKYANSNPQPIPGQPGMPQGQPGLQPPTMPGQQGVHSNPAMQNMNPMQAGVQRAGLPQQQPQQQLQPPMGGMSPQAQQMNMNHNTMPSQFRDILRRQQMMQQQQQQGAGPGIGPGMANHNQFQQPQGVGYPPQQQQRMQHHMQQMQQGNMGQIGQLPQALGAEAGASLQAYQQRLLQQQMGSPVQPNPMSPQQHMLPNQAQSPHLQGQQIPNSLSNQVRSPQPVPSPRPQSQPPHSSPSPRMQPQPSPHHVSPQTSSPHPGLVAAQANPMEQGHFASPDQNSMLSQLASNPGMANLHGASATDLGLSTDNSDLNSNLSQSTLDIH

In the case of `Cc1nc(-c2cnc(N(C)c3cc(C4CCOCC4)c4c(c3)n(C)c(=O)n4C)cn2)cnc1C(=O)NCC#Cc1cc2c(C3CCC(=O)NC3=O)nccc2o1` (stereo not shown) [Example A200, 5′-((1,3-dimethyl-2-oxo-7-(tetrahydro-2H-pyran-4-yl)-2,3-dihydro-1H-benzo [d]imidazol-5-yl) (methyl)amino)-N-(3-(4-(2,6-dioxo-piperidin-3-yl)furo[3,2-c]pyridin-2-yl)prop-2-yn-1-yl)-6-methyl-[2,2′-bipyrazine]-5-carboxamide], the Dmax (as a rule, the largest share of the target that was removed) is > 80% and the DC50 (usually the concentration giving 50% degradation) lay in the range of 1 to 9.9 nM.

For the compound `Cc1cc(N2CCN(C)c3cc(-c4ccc(C(=O)NCC#Cc5cc6c(C7CCC(=O)NC7=O)cccc6o5)nc4)ncc32)c2cc(C)c(=O)n(C)c2c1` (stereo not shown) [Example B40, N-(3-(4-(2,6-dioxopiperidin-3-yl)benzofuran-2-yl)prop-2-yn-1-yl)-5-(1-methyl-4-(1,3,7-trimethyl-2-oxo-1,2-dihydroquinolin-5-yl)-1,2,3,4-tetrahydropyrido[3,4-b]pyrazin-7-yl) picolinamide], the Dmax was > 80% and the DC50 was < 1 nM.

Turning to `Cc1cc(-c2ncc(N(C)c3cc(C4CCOCC4)c4c(c3)n(C)c(=O)n4C)c(N(C)C)n2)cnc1C(=O)NCC#Cc1cc2c(C3CCC(=O)NC3=O)cccc2o1` (stereo not shown) [Example A225, 5-(5-((1,3-dimethyl-2-oxo-7-(tetrahydro-2H-pyran-4-yl)-2,3-dihydro-1H-benzo[d]imidazol-5-yl)(methyl)amino)-4-(dimethylamino)pyrimidin-2-yl)-N-(3-(4-(2,6-dioxopiperidin-3-yl)benzofuran-2-yl)prop-2-yn-1-yl)-3-methylpicolinamide], the Dmax is < 20% and the DC50 is > 1000 nM.

Compound `CC(C)c1cc(-c2cccc3cc(-c4ccc(C(=O)NCC#Cc5ccc6occ(C7CCC(=O)NC7=O)c6n5)nc4)ncc23)cc2c1n(C)c(=O)n2C` (stereo not shown) [Example A159, N-(3-(3-(2,6-dioxo-piperidin-3-yl)furo[3,2-b]pyridin-5-yl)prop-2-yn-1-yl)-5-(8-(7-isopropyl-1,3-dimethyl-2-oxo-2,3-dihydro-1H-benzo [d]imidazol-5-yl)isoquinolin-3-yl)picolinamide] displayed a Dmax of 40 to 59% and a DC50 of 10 to 99 nM.

For the compound `Cn1cc(-c2ccc3c(c2)n(C)c(=O)n3C)c2cnc(-c3ccc(C(=O)NCC#Cc4ccc5occ(C6CCC(=O)NC6=O)c5c4)nc3)cc2c1=O` (stereo not shown) [Example A129, 5-(8-(1,3-dimethyl-2-oxo-2,3-dihydro-1H-benzo[d]imidazol-5-yl)-6-methyl-5-oxo-5,6-dihydro-2,6-naphthyridin-3-yl)-N-(3-(3-(2,6-dioxo-piperidin-3-yl)benzo-furan-5-yl)prop-2-yn-1-yl)picolinamide], the Dmax is > 80% and the half-maximal degradation concentration (DC50) lay in the range of 1 to 9.9 nM.

Regarding `CCc1cc(N2CCCc3cc(-c4ccc(C(=O)NCC#Cc5ccc6occ(C7CCC(=O)NC7=O)c6c5)nc4)c(F)cc32)c2cc(C)c(=O)n(C)c2c1` (stereo not shown) [Example B133, N-(3-(3-(2,6-dioxopiperidin-3-yl)benzofuran-5-yl)prop-2-yn-1-yl)-5-(7′-ethyl-7-fluoro-1′,3′-dimethyl-2′-oxo-1′,2′,3,4-tetrahydro-2H-[1,5′-biquinolin]-6-yl)picolinamide], the Dmax is > 80% and the DC50 was in the range of 1 to 9.9 nM.

In turn, `COc1cc(C#CCNC(=O)c2ccc(-c3cc4cccc(-c5cc(C(C)C)c6c(c5)n(C)c(=O)n6C)c4cn3)cn2)cc2c1cnn2C1CCC(=O)NC1=O` (stereo not shown) [Example A26, N-(3-(1-(2,6-Dioxopiperidin-3-yl)-4-methoxy-1H-indazol-6-yl)prop-2-yn-1-yl)-5-(8-(7-isopropyl-1,3-dimethyl-2-oxo-2,3-dihydro-1H-benzo[d]imidazol-5-yl)isoquinolin-3-yl)picolinamide] yielded a Dmax of 60 to 79% and a DC50 of 10 to 99 nM.

For the compound `Cc1cc2c(N3CCCc4nc(-c5ccc(C(=O)NCC#Cc6ccc7occ(C8CCC(=O)NC8=O)c7c6)nc5)ncc43)nc(N3CC[Si](C)(C)CC3)cc2n(C)c1=O` (stereo not shown) [Example B139, 5-(5-(7-(4,4-dimethyl-1,4-azasilinan-1-yl)-1,3-dimethyl-2-oxo-1,2-dihydro-1,6-naphthyridin-5-yl)-5,6,7,8-tetrahydropyrido[3,2-d]pyrimidin-2-yl)-N-(3-(3-(2,6-dioxopiperidin-3-yl)benzofuran-5-yl)prop-2-yn-1-yl)picolinamide], the Dmax was in the range of 60 to 79% and the DC50 lay within 100 to 999 nM.

As to `Cc1cc2c(N3CCN(C)c4cc(-c5ccc(C(=O)NCC#Cc6cc7c(C8CCC(=O)NC8=O)cccc7o6)nc5)ncc43)cc(C(C)C)cc2n(C)c1=O` (stereo not shown) [Example B95, N-(3-(4-(2,6-dioxopiperidin-3-yl)benzofuran-2-yl)prop-2-yn-1-yl)-5-(4-(7-isopropyl-1,3-dimethyl-2-oxo-1,2-dihydroquinolin-5-yl)-1-methyl-1,2,3,4-tetrahydropyrido[3,4-b]pyrazin-7-yl)picolinamide], the Dmax is > 80% and the DC50 is < 1 nM.

Take `Cn1cc(-c2ccc3c(c2)n(C)c(=O)n3C)c2cnc(-c3ccc(C(=O)NCC#Cc4cc5c(C6CCC(=O)NC6=O)nccc5o4)nc3)cc2c1=O` (stereo not shown) [Example A230, 5-(8-(1,3-dimethyl-2-oxo-2,3-dihydro-1H-benzo[d]imidazol-5-yl)-6-methyl-5-oxo-5,6-dihydro-2,6-naphthyridin-3-yl)-N-(3-(4-(2,6-dioxopiperidin-3-yl)furo[3,2-c]pyridin-2-yl)prop-2-yn-1-yl)picolinamide]: the Dmax was > 80% and the DC50 was in the range of 1 to 9.9 nM.

Consider `Cc1cc(N2CCCc3nc(-c4ccc(C(=O)NCC#Cc5cc6c(C7CCC(=O)NC7=O)cccc6o5)nc4)ncc32)c2cc(C)c(=O)n(C)c2n1` (stereo not shown) [Example B118, N-(3-(4-(2,6-dioxopiperidin-3-yl)benzofuran-2-yl)prop-2-yn-1-yl)-5-(5-(2,6,8-trimethyl-7-oxo-7,8-dihydro-1,8-naphthyridin-4-yl)-5,6,7,8-tetrahydropyrido[3,2-d]pyrimidin-2-yl) picolinamide], for which the Dmax is > 80% and the DC50 lay within 1 to 9.9 nM.

`Cc1cc2c(N3CCCc4cc(-c5ccc(C(=O)NCC#Cc6cc7c(C8CCC(=O)NC8=O)cccc7o6)nc5)nnc43)cccc2n(C)c1=O` (stereo not shown) [Example B34, 5-(8-(1,3-dimethyl-2-oxo-1,2-dihydroquinolin-5-yl)-5,6,7,8-tetrahydropyrido[2,3-c]pyridazin-3-yl)-N-(3-(4-(2,6-dioxopiperidin-3-yl)benzofuran-2-yl)prop-2-yn-1-yl)picolinamide]: the Dmax was > 80% and the DC50 is < 1 nM.

Turning to `Cc1cc(-c2ncc(N(C)c3cc(C4CCN(C)CC4)c4c(c3)n(C)c(=O)n4C)cn2)cnc1C(=O)NCC#Cc1ccc2occ(C3CCC(=O)NC3=O)c2c1` (stereo not shown) [Example A112, 5-(5-((1,3-dimethyl-7-(1-methylpiperidin-4-yl)-2-oxo-2,3-dihydro-1H-benzo [d]imidazol-5-yl)(methyl)amino)pyrimidin-2-yl)-N-(3-(3-(2,6-dioxopiperidin-3-yl)benzofuran-5-yl)prop-2-yn-1-yl)-3-methylpicolinamide], the Dmax is > 80% and the DC50 lay within 1 to 9.9 nM.

Compound `CCc1cc(-c2cccc3cc(-c4ccc(C(=O)NCC#Cc5cc(C)c6cnn(C7CCC(=O)NC7=O)c6c5)nc4)ncc23)c2cc(C)c(=O)n(C)c2c1` (stereo not shown) [Example B6, N-(3-(1-(2,6-Dioxopiperidin-3-yl)-4-methyl-1H-indazol-6-yl)prop-2-yn-1-yl)-5-(8-(7-ethyl-1,3-dimethyl-2-oxo-1,2-dihydroquinolin-5-yl)isoquinolin-3-yl)picolinamide] showed a Dmax of 60 to 79% and a DC50 of 10 to 99 nM.

For `Cc1cc2c(N3CCOc4cc(-c5ccc(C(=O)NCC#Cc6ccc7occ(C8CCC(=O)NC8=O)c7c6)nc5)ncc43)cc(C3CCOCC3)cc2n(C)c1=O` (stereo not shown) [Example B109, 5-(4-(1,3-dimethyl-2-oxo-7-(tetrahydro-2H-pyran-4-yl)-1,2-dihydroquinolin-5-yl)-3,4-dihydro-2H-pyrido[4,3-b][1,4]oxazin-7-yl)-N-(3-(3-(2,6-dioxopiperidin-3-yl)benzofuran-5-yl)prop-2-yn-1-yl)picolinamide], the Dmax is > 80% and the DC50 is < 1 nM.

As for `Cn1c(=O)n(C)c2c(C3CCOCC3)nc(N3CCCc4nc(-c5ccc(C(=O)NCC#Cc6ccc7occ(C8CCC(=O)NC8=O)c7c6)nc5)ncc43)cc21` (stereo not shown) [Example A78, 5-(5-(1,3-dimethyl-2-oxo-4-(tetrahydro-2H-pyran-4-yl)-2,3-dihydro-1H-imidazo[4,5-c]pyridin-6-yl)-5,6,7,8-tetrahydro-pyrido[3,2-d]pyrimidin-2-yl)-N-(3-(3-(2,6-dioxopiperidin-3-yl)benzofuran-5-yl)prop-2-yn-1-yl)picolinamide], the Dmax is < 20% and the DC50 is > 1000 nM.

Turning to `Cc1cc(-c2ncc(N(C)c3cc(C4CCOCC4)c4c(c3)n(C)c(=O)n4C)nn2)cnc1C(=O)NCC#Cc1ccc2occ(C3CCC(=O)NC3=O)c2c1` (stereo not shown) [Example A90, 5-(6-((1,3-dimethyl-2-oxo-7-(tetrahydro-2H-pyran-4-yl)-2,3-dihydro-1H-benzo[d]imidazol-5-yl)(methyl)amino)-1,2,4-triazin-3-yl)-N-(3-(3-(2,6-dioxopiperidin-3-yl)benzofuran-5-yl)prop-2-yn-1-yl)-3-methylpicolinamide], the Dmax is < 20% and the DC50 lay in the range of 1 to 9.9 nM.
